Source: US5550138A, “Condensed thiadiazole derivative, method of its production, and use thereof” (Takeda Chemical Industries, Ltd., priority 1992, dated 1996)

Key:
endothelin receptor = assay: Inhibition of endothelin-1 binding to endothelin receptor (125I-endothelin binding test, rabbit ventricular microsomal fraction); conditions: 125I-endothelin-1 6×10^-11 M, 37° C., 90 minutes
Protocol: Inhibition of endothelin-1 binding to endothelin receptor
(a) Preparation of rabbit ventricular microsomal fraction
Rabbit ventricular microsomal fraction was prepared by the method described in Methods in Enzymology, 109, 513 with a slight modification. The cardiac ventricular muscle excised from a 2 to 2.5 kg rabbit was minced in solution A (20 mM NaHCO3, 0.1 mM phenylmethylsulfonyl fluoride (PMSF)) and then homogenized using a Polytron PT-20, and centrifuged at 1500×g for 15 minutes. The supernatant was centrifuged at 45000×g for 15 minutes. The resulting sediment was suspended in solution B (50 mM Tris-HCl pH 7.4, 0.1 mM PMSF) and then re-centrifuged at 45000×g for 15 minutes. The sediment was again suspended in solution B and then centrifuged at 45000×g for 15 minutes. The sediment was re-suspended in solution B, and the suspension was frozen with liquid nitrogen and stored at -80° C. This series of operations was performed at 4° C. Protein contents was determined by Lowry's method.
(b) ^125 I-endothelin binding test
To 250 μl of a reaction solution (50 mM Tris-HCl, pH 7.4, 0.2% BSA (bovine serum albumin)), supplemented with 6×10^-11 M ^125 I-endothelin-1 (Amersham Japan) 50 μl of the ventricular microsomal fraction (20 μg) and a sample were added, followed by incubation at 37° C. for 90 minutes. The reaction mixture was then filtered through a GF/B glass filter (Millipore Japan), and the filter was washed with a 40-fold (12 ml) of the reaction solution. The radioactivity of the ^125 I-endothelin on the glass filter was determined using a gamma-ray counter. Nonspecific binding was defined as the amount of ^125 I-endothelin in the presence of 4×10^-7 M unlabelled endothelin-1 and was less than 8% of total binding. The specific binding was calculated as total binding minus nonspecific binding. Non-specific binding accounted for not higher than 8% of the total binding. The inhibitory rate of the compound is expressed as the concentration (IC50 M) required to cause a 50% reduction in the specific binding.

swine coronary artery = assay: Inhibitory action on endothelin-1-induced constriction in swine coronary artery; type: cell-based; conditions: Sus scrofa, relaxation of maximum constriction induced by endothelin-1 (3×10^-9 M); for inhibition at 100 µM: compound 1 × 10^-4 M; for inhibition at 10 µM: compound 1 × 10^-5 M; for inhibition at 30 µM: compound 3 × 10^-5 M
Protocol: Inhibitory action on endothelin-1-induced constriction in swine coronary artery
After fat tissue removal, the swine left coronary arterial anterior descending branch (LAD) was isolated and vascular rings were prepared. These arterial rings kept at 37° C., were suspended in a 20 ml organ chamber filled with Krebs solution being aerated with 95% O2 /5% CO2 gas. Two grams of the tension was applied. After equilibration for 1 hr, 60 mMKCl was applied to condition the coronary rings. The test compound was tested for inhibition of the constriction induced by endothelin-1 (3×10^-9 M) by adding the test compound when the maximum of endothelin-1 induced constriction was reached. Activity is expressed as percent relaxation of the maximum constriction induced by endothelin-1. The developed tension of rings was reached isometrically.

bone resorption = assay: Inhibition of bone resorption (45Ca release from fetal rat forearm bones); type: cell-based, rat (Sprague-Dawley); conditions: 48 h, 10 μg/ml compound, two days of culture, read-out: Inhibition of Bone Resorption [45Ca released (percent ratio to control)]
Protocol: Inhibition of bone resorption
The inhibitory effect of compound on bone resorption was measured by the method of Rais 3 [Journal of Clinical Investigation, 44, 103-116 (1965)]. Specifically, one Sprague-Dawley rat, at 19 days of gestation, was given 50 μCi of ^45 Ca (calcium isotope, in CaCl2 solution) by subcutaneous injection. On the following day, fetal rats were aseptically taken out, both forearm bones (radius and ulna) were cut out from the body of each fetus, and connective tissue and cartilages were removed to maximum possible extent, to yield prepare bone culture samples. Each bone fragment was incubated at 37° C. for 24 hours in 0.6 ml of BGJb medium (Fitton-Jackson modification, produced by GIBCO Laboratories, United States) containing 2 mg/ml bovine serum albumin, after which it was cultured in the same medium as above but containing a 10 μg/ml compound for two more days. ^45 Ca radioactivity in the medium and ^45 Ca radioactivity in the bone were then measured, and the percent ratio of ^45 Ca released from the bone to the medium was calculated using the following equation: [formula]
For control, bone fractions from fetuses of the same litter were cultured for two days in the absence of the test compound. The mean ± standard deviation for the values from five bone fragments in each group were calculated, and their percent ratios to the control were calculated.

Cathepsin B = assay: Determination of cathepsin B inhibitory activity; type: biochemical; conditions: substrate Z-Phe-Arg-NH-Mec; pH 5.5; 37° C., 20 minutes
Protocol: Determination of cathepsin B inhibitory activity
Cathepsin B (produced by Sigma) was diluted with 100 mM sodium acetate buffer (pH 5.5) to a concentration of 30 μg/ml. To 1 μl of this enzyme dilution, 46 μl of diluent, 2 μl of 0.1M DTT and 25 μl of activator/buffer (340 mM sodium acetate, 60 mM acetic acid, 4 mM EDTA disodium salt, pH 5.5) were added. To this mixture, a 1 μl sample, diluted to 10^-3 M with dimethylsulfoxide (DMSO), and 25 μl of 20 μM Z-Phe-Arg-NH-Mec (enzyme substrate solution) were added. After the mixture was incubated at 37° C. for 20 minutes, 100 μl of a stop solution (100 mM sodium monochloroacetate, 30 mM sodium acetate, pH 4.3) was added. The reaction was carried out on a 96-well fluoropiate (produced by Labo-Systems).
After the reaction was stopped, the absorbance of free aminomethylcoumarin was determined by excitation at 365 nm and emission at 450 nm, using Fluorescence Concentration Analyzer (produced by Baxter). One μl of sample-free DMSO was added for control, and the absorbance from reaction of this control was defined as 100% activity. For samples of under 10% residual activity, further dilutions were assayed for residual activity as described above to obtain the IC50 value.

mice = assay: Toxicity in mice (deaths); type: in vivo; conditions: 300 mg/kg dose
Protocol: Although the daily dose varies depending on the condition and weight of the patient, kind of the compound, route of administration and other factors, it is administered parenterally, specifically subcutaneously, intravenously, intramuscularly or rectally at about 0.05 to 100 mg/kg/day, preferably 0.5 to 50 mg/kg/day as an endothelin receptor antagonist, about 0.1 to 100 mg/kg/day, preferably 1 to 50 mg/kg/day as a cathepsin B inhibitor and about 1 to 200 mg/kg/day, preferably 5 to 100 mg/kg/day as a bone resorption suppressor, respectively. For use as an oral agent, it is desirable to administer it at about 0.1 to 500 mg/kg/day, preferably 0.5 to 200 mg/kg/day as an endothelin receptor antagonist, about 1 to 500 mg/kg/day, preferably 10 to 300 mg/kg/day as a cathepsin B inhibitor and about 5 to 1000 mg/kg/day, preferably 10 to 300 mg/kg/day as a bone resorption suppressor, respectively.

SMILES	IC50 (endothelin receptor)	activity at 10 µg/mL (bone resorption)	also measured
Cc1ccc(S(=O)(=O)N=c2nc3cc4c(cn3s2)CCCC4)cc1 [Example 12]	6.5 µM		inhibition at 100 µM (swine coronary artery): 62%; inhibition at 10 µM (swine coronary artery): 14%
Cc1ccccc1S(=O)(=O)N=c1nc2cc3c(cn2s1)CCCC3 [Example 13]	5.9 µM		inhibition at 100 µM (swine coronary artery): 78%; inhibition at 10 µM (swine coronary artery): 56%
O=S(=O)(N=c1nc2cc3c(cn2s1)CCCC3)c1ccccc1 [Example 14]	8.8 µM		
CCc1sc2nc(=NS(=O)(=O)c3ccc(C)cc3)sn2c1-c1ccc2c(c1)CCCC2 [Example 20, 5-ethyl-2-(4-methylphenyl)sulfonylimino-6-(5,6,7,8-tetrahydro-2-naphthyl)-2H-thiazolo[3,2-b][1,2,4]thiadiazole]	3 µM		inhibition at 100 µM (swine coronary artery): 68%; inhibition at 10 µM (swine coronary artery): 11%
CCCc1sc2nc(=NS(=O)(=O)c3ccc(C)cc3)sn2c1-c1ccc2c(c1)CCCC2 [Example 23]	2.5 µM		
Cc1ccc(S(=O)(=O)N=c2nc3sc(C(C)C)c(-c4ccc5c(c4)CCCC5)n3s2)cc1 [Example 24]	2.5 µM		inhibition at 100 µM (swine coronary artery): 99%; inhibition at 10 µM (swine coronary artery): 37%
Cc1ccc(S(=O)(=O)N=c2nc3sc(CC4CCCCC4)c(-c4ccc5c(c4)CCCC5)n3s2)cc1 [Example 25]		72%	IC50 (Cathepsin B): 1.2 µM
CCOC(=O)Cc1sc2nc(=NS(=O)(=O)c3ccc(C)cc3)sn2c1-c1ccc2c(c1)CCCC2 [Example 26]	4 µM		
CCNC(=O)Cc1sc2nc(=NS(=O)(=O)c3ccc(C)cc3)sn2c1-c1ccc2c(c1)CCCC2 [Example 31]			IC50 (Cathepsin B): 2.9 µM
Cc1ccc(NC(=O)Cc2sc3nc(=NS(=O)(=O)c4ccc(C)cc4)sn3c2-c2ccc3c(c2)CCCC3)cc1 [Example 34]		75%	IC50 (Cathepsin B): 9.3 µM
CCc1sc2nc(=NS(=O)(=O)c3ccc(C)cc3)sn2c1CC(=O)NCC1CCCCC1 [Example 65]		74%	
Cc1ccccc1S(=O)(=O)N=c1nc2sc(C)c(-c3ccc(C4CCCCC4)cc3)n2s1 [Example 73]	7.3 µM		
CCS(=O)(=O)N=c1nc2sc(C)c(-c3ccc(C4CCCCC4)cc3)n2s1 [Example 82]	7.5 µM		
Cc1sc2nc(=NS(=O)(=O)Cc3ccccc3)sn2c1-c1ccc(C2CCCCC2)cc1 [Example 83]	6 µM		deaths (mice): no deaths occurred
CCNC(=O)CCc1sc2nc(=NS(=O)(=O)c3ccc(C)cc3)sn2c1-c1ccc2c(c1)CCCC2 [Example 94]		76%	
CCOC(=O)CCC(NC(=O)CCc1sc2nc(=NS(=O)(=O)c3ccc(C)cc3)sn2c1-c1ccc2c(c1)CCCC2)C(=O)OCC (stereo not shown) [Example 96]		81%	IC50 (Cathepsin B): 1.9 µM
CCOC(=O)CCCc1sc2nc(=NS(=O)(=O)c3ccc(C)cc3)sn2c1-c1ccc(C2CCCCC2)cc1 [Example 98]		87%	IC50 (Cathepsin B): 3.5 µM
CCc1sc2nc(=NS(=O)(=O)c3ccc(C)cc3)sn2c1-c1ccc(C2CCCCC2)cc1 [Example 99]	2.1 µM		
CCCCOc1ccc(-c2c(CC)sc3nc(=NS(=O)(=O)c4ccc(C)cc4)sn23)cc1 [Example 104]	2.7 µM		
CCc1sc2nc(=NS(=O)(=O)c3ccc(C)cc3)sn2c1-c1cn(C)c2ccccc12 [Example 106]	4.2 µM		
Cc1sc2nc(=NS(=O)(=O)c3cccnc3)sn2c1-c1ccc(C2CCCCC2)cc1 [Example 108]		85%	IC50 (Cathepsin B): 1.1 µM
CCCS(=O)(=O)N=c1nc2sc(C)c(-c3ccc(C4CCCCC4)cc3)n2s1 [Example 111]	6.1 µM	75%	inhibition at 10 µM (swine coronary artery): 40%; inhibition at 30 µM (swine coronary artery): 78%
CCCCCCCCS(=O)(=O)N=c1nc2sc(C)c(-c3ccc(C4CCCCC4)cc3)n2s1 [Example 112]	5.2 µM		inhibition at 10 µM (swine coronary artery): 35%; inhibition at 30 µM (swine coronary artery): 83%
CCc1sc2nc(=NS(=O)(=O)c3ccc(F)cc3)sn2c1-c1ccc(C2CCCCC2)cc1 [Example 114]	3.8 µM		inhibition at 10 µM (swine coronary artery): 44%; inhibition at 30 µM (swine coronary artery): 75%
CCc1sc2nc(=NS(=O)(=O)CC(C)(C)CO)sn2c1-c1ccc(C2CCCCC2)cc1 [Example 115]		85%	
